Measured values published in patent US4983613A, “Isoquinoline acetic acids and acetyl carbamates useful as aldose reductase inhibitors” (American Home Products Corporation, priority 1989, dated 1991).
Each block holds one compound with its values, some of them ahead of it.

Columns and labels:
aldose reductase = molecular target: T1, aldose reductase (Bos taurus, UniProt P16116); test: in vitro inhibition of aldose reductase (modified Hayman and Kinoshita procedure, enzyme from bovine lens); assay type: biochemical; conditions: for inhibition at 0.04 µM: 4 × 10^-8 M; for inhibition at 10 µM: 10^-5 M; for inhibition at 1 µM: 10^-6 M; for inhibition at 0.1 µM: 10^-7 M
T1 construct: in the preparation of the enzyme from bovine lens; from tissue; host or cells: bovine lens
Description: (c) The polyol determination was performed by a modification of the procedure of M. Kraml and L. Cosyns, Clin. Biochem., 2,373 (1969). Only two minor reagent changes were made: (a) The rinsing mixture was an aqueous 5% (w/v) trichloroacetic acid solution and (b) the stock solution was prepared by dissolving 25 mg of dulcitol in 100 ml of an aqueous trichloroacetic acid solution. [N.B.: For each experiment the average value found in the tissue from rats fed the glucose diet was subtracted from the individual values found in the corresponding tissue in galactose-fed rats to obtain the amount of polyol accumulated.] The aldose reductase inhibiting effects of the compounds of formula (I) were also tested by employing an in vitro testing procedure similar to that described by S. Hayman and J. H. Kinoshita, J. Biol. Chem., 240,877 (1965). In the present case the procedure of Hayman and Kinoshita was modified in that the final chromatography step was omitted in the preparation of the enzyme from bovine lens. […] The figures under L and N represent the percentage decrease of dulcitol accumulation in the tissues of the lens and sciatic nerve, respectively, for treated rats as compared to untreated rats.

[1] = tested on: dulcitol accumulation in sciatic nerve; test: in vivo lowering of dulcitol accumulation in sciatic nerve of galactosemic rats; design: species or system rat (Sprague-Dawley); conditions: in diet, four days
Text: (§1) The aldose reductase inhibiting property of the compounds of this invention and the utilization of the compounds in preventing, diminishing and alleviating diabetic complications are demonstrable in experiments using galactosemic rats, see Dvornik et al., Science, 182, 1146 (1973). Such experiments are exemplified hereinbelow after the listing of the following general comments pertaining to these experiments:
(§2) (a) Four or more groups of six male rats, 50-70 g, Sprague-Dawley strain, were used. The first group, the control group, was fed a mixture of laboratory chow (Rodent Laboratory Chow, Purina) and glucose at 20% (w/w %) concentration. The untreated galactosemic group was fed a similar diet in which galactose is substituted for glucose. The third group was fed a diet prepared by mixing a given amount of the test compound with the galactose containing diet. The concentration of the galactose in the diet of the treated groups was the same as that for the untreated galactosemic group.
(§3) (b) After four days, the animals were killed by euthanization. The lenses were removed from the eyes and weighed. The sciatic nerves were dissected as completely as possible and weighed. Both tissues when frozen can be kept up to two weeks before being analyzed for dulcitol.
(c) The polyol determination was performed by a modification of the procedure of M. Kraml and L. Cosyns, Clin. Biochem., 2,373 (1969). Only two minor reagent changes were made: (a) The rinsing mixture was an aqueous 5% (w/v) trichloroacetic acid solution and (b) the stock solution was prepared by dissolving 25 mg of dulcitol in 100 ml of an aqueous trichloroacetic acid solution. [N.B.: For each experiment the average value found in the tissue from rats fed the glucose diet was subtracted from the individual values found in the corresponding tissue in galactose-fed rats to obtain the amount of polyol accumulated.] The aldose reductase inhibiting effects of the compounds of formula (I) were also tested by employing an in vitro testing procedure similar to that described by S. Hayman and J. H. Kinoshita, J. Biol. Chem., 240,877 (1965). In the present case the procedure of Hayman and Kinoshita was modified in that the final chromatography step was omitted in the preparation of the enzyme from bovine lens.
The figures under L and N represent the percentage decrease of dulcitol accumulation in the tissues of the lens and sciatic nerve, respectively, for treated rats as compared to untreated rats.

[2] = tested on: dulcitol accumulation in lens; test: in vivo lowering of dulcitol accumulation in lens of galactosemic rats; design: species or system rat (Sprague-Dawley); conditions: in diet, four days
Text: as §1, §2, §3
(c) The polyol determination was performed by a modification of the procedure of M. Kraml and L. Cosyns, Clin. Biochem., 2,373 (1969). Only two minor reagent changes were made: (a) The rinsing mixture was an aqueous 5% (w/v) trichloroacetic acid solution and (b) the stock solution was prepared by dissolving 25 mg of dulcitol in 100 ml of an aqueous trichloroacetic acid solution. [N.B.: For each experiment the average value found in the tissue from rats fed the glucose diet was subtracted from the individual values found in the corresponding tissue in galactose-fed rats to obtain the amount of polyol accumulated.] […]

Structure (SMILES): O=C(O)CC1C(=O)N(Cc2ccc(Br)cc2F)C(=O)c2ccccc21 (stereo not shown) [2-[(4-Bromo-2-fluorophenyl)methyl]-1,2,3,4-tetrahydro-1,3-dioxo-4-isoquinolineacetic Acid]
inhibition at 0.04 µM (aldose reductase): 50%
inhibition at 10 µM (aldose reductase): 94%
inhibition at 1 µM (aldose reductase): 91%
inhibition at 0.1 µM (aldose reductase): 88%

Structure (SMILES): O=C(O)CC1C(=O)N(Cc2ccc(Br)cc2F)C(=O)c2ccc(F)cc21 (stereo not shown) [2-[(4-Bromo-2-fluorophenyl)methyl]-6-fluoro-1,2,3,4-tetrahydro-1,3-dioxo-4-isoquinolineacetic Acid]
inhibition at 0.04 µM (aldose reductase): 80%
inhibition at 10 µM (aldose reductase): 96%
inhibition at 1 µM (aldose reductase): 91%
inhibition at 0.1 µM (aldose reductase): 86%
% Lowering Ducitol Accumulation In vivo, Nerve ([1]; 25 mg/kg): 47%

Structure (SMILES): CCOC(=O)NC(=O)CC1C(=O)N(C)C(=O)c2ccc(Cl)cc21 (stereo not shown) [-6Cl, H, CH3, NHCO2 C2 H5, [(6-chloro-1,2,3,4-tetrahydro-2-methyl-1,3-dioxo-4-isoquinolinyl)acetyl]carbamic acid ethyl ester]
inhibition at 10 µM (aldose reductase): 14.5%
% Lowering Ducitol Accumulation In vivo, Nerve ([1]; 24.5 mg/kg): 34%

Structure (SMILES): COC(=O)NC(=O)CC1C(=O)N(C)C(=O)c2ccccc21 (stereo not shown) [H, H, CH3, NHCO2 CH3, [(1,2,3,4-Tetrahydro-2-methyl-1,3-dioxo-4-isoquinolinyl)acetyl]carbamic Acid Methyl Ester]
inhibition at 10 µM (aldose reductase): 61%
% Inhibition in vitro (aldose reductase; 10^- M (exponent not given)): 11%
% Lowering Ducitol Accumulation In vivo, Lens ([2]; 85.0 mg/kg): 37.2%
% Lowering Ducitol Accumulation In vivo, Nerve ([1]; 26.8 mg/kg): 21.2%
% Lowering Ducitol Accumulation In vivo, Nerve ([1]; 85.0 mg/kg): 58.6%

Structure (SMILES): COC(=O)NC(=O)CC1C(=O)N(Cc2ccc(Br)cc2F)C(=O)c2ccc(F)cc21 (stereo not shown) [[[2-[(4-Bromo-2-fluorophenyl)methyl]-6-fluoro-1,2,3,4-tetrahydro-1,3-dioxo-4-isoquinolinyl]acetyl]carbamic Acid Methyl Ester]
inhibition at 10 µM (aldose reductase): 55%
inhibition at 1 µM (aldose reductase): 18%
% Lowering Ducitol Accumulation In vivo, Nerve ([1]; 26 mg/kg): 78%

The next lines start with results.

inhibition at 10 µM (aldose reductase): 64.5%
inhibition at 1 µM (aldose reductase): 26.6%
Structure (SMILES): COC(=O)NC(=O)CC1C(=O)N(C)C(=O)c2ccc(Cl)cc21 (stereo not shown) [6Cl, H, CH3, NHCO2 CH3, [(6-chloro-1,2,3,4-tetrahydro-2-methyl-1,3-dioxo-4-isoquinolinyl)acetyl]carbamic acid methyl ester]
% Lowering Ducitol Accumulation In vivo, Lens ([2]; 25 mg/kg): 24%
% Lowering Ducitol Accumulation In vivo, Lens ([2]; 86.1 mg/kg): 55%
% Lowering Ducitol Accumulation In vivo, Nerve ([1]; 25 mg/kg): 53%
% Lowering Ducitol Accumulation In vivo, Nerve ([1]; 86.1 mg/kg): 81%

inhibition at 10 µM (aldose reductase): 50%
inhibition at 1 µM (aldose reductase): 17%
Structure (SMILES): COC(=O)NC(=O)CC1C(=O)N(C)C(=O)c2cc(Cl)ccc21 (stereo not shown) [7Cl, CH3, NHCO2 CH3, [(7-chloro-1,2,3,4-tetrahydro-2-methyl-1,3-dioxo-4-isoquinolinyl)acetyl]carbamic acid methyl ester]
% Lowering Ducitol Accumulation In vivo, Nerve ([1]; 24.3 mg/kg): 28%
